Consider 5 compounds from patent US20090028925A1, “Novel Phosphinic Acid-Containing Thyromimetics” (priority 2005, published 2009).

Data set [1] in a line: Subacute study in normal rats, continuous infusion: heart weight. Format: in vivo, rats (Sprague-Dawley). As to conditions: continuous infusion 1 mg/kg/day. The text has this:
(§1) Efficacy endpoints include serum cholesterol, liver mitochondrial glycerol phosphate dehydrogenase (mGPDH) activity and the expression of relevant liver genes (e.g., the LDL-receptor, apoB, cpt-1, spot14 and apoAI). Safety parameters include heart weight, heart rate, heart mGPDH activity, the expression and key genes involved in cardiac structure and function (e.g., Serca2, HCN2, Kv1.5, MHCα, MHCβ, Alpha1c), and standard plasma chemistry analysis (liver enzymes, electrolytes, creatinine). Endocrine effects are monitored by analysis of serum thyroid stimulating hormone (TSH). [Taylor et al., Mol Pharmacol 52(3): 542-7 (1997); Weitzel et al., Eur J Biochem 268(14):4095-4103 (2001)]
(§2) Normal rats (Sprague-Dawley) were maintained on a standard diet. […] The compounds were brought up to an appropriate volume using PBS and BSA to maintain solubility within the pump. The compounds were chemically stable in the excipient at 37° C. for 7 days.
(§3) Values are expressed as percent of control. (Table 4)

The subject of a further data set is liver triglycerides. The data set is described as follows: Hepatic triglyceride content in normal rats, chronic infusion. The data set is classed as in vivo. As to conditions: normal rats chronically infused for 7 days. Here is the method:
Normal rats were chronically infused with Compound 7 for 7 days. Liver triglycerides were analyzed following lipid extraction by the Bligh Dyer method (Bligh E G and Dyer W J, A rapid method of total lipid extraction and purification. Can J Med. Sci. 1959 (August); 37(8):911-7, incorporated herein by reference). Total triglycerides were analyzed in the liver extracts by an enzymatic assay (Thermo Electron Corporation). Total lipid was normalized to initial liver weight and triglyceride content was normalized to liver weight. […] There was a 4% reduction in liver triglycerides for this group and the results were not statistically significant.

Data set [2] relates to liver mitochondrial glycerol phosphate dehydrogenase (mGPDH) activity. Briefly: Subacute study in normal rats, continuous infusion: liver mGPDH activity. The data set is classed as in vivo, rats (Sprague-Dawley). As to conditions: continuous infusion 1 mg/kg/day.
Text: as §1
(§4) Methods: mGPDH activity was analyzed in isolated mitochondria using 2-(4-iodophenyl)-3-(4-nitrophenyl)-5-phenyl tetrazolium chloride as the terminal electron acceptor (Gardner R S, Analytical Biochemistry 59:272 (1974)). Commercially available GPDH was used in each assay as a standard (Sigma, St. Louis, Mo.). Changes in levels of mRNA for liver and heart genes are analyzed using reverse transcriptase followed by real-time PCR analysis. The analysis is performed using an iCycler instrument (Biorad) and appropriate primers by means of standard methodology [e.g., Schwab D A et al. (2000) Life Sciences 66: 1683-94]. The amounts of mRNA are normalized to an internal control, typically, cyclophilin. Serum TSH is measured using an enzyme immunoassay (EIA) kit designed for rat TSH (Amersham Pharmacia Biotech, Arlington Heights, Ill.).
as §2, §3

Another data set relates to heart mGPDH activity. Briefly: Subacute study in normal rats, continuous infusion: heart mGPDH activity. As to conditions: continuous infusion 1 mg/kg/day. Format: in vivo, rats (Sprague-Dawley).
Text: as §1, §4, §2, §3

A further data set deals with human hepatoma cells. As to conditions: via thyroid hormone receptor activation; cited from earlier work.
For data set [3] the following is noted: effects on cholesterol and TSH at the same or not pharmacologically different doses; cited from earlier work.
The conditions of data set [4]: in the monkey; cited from earlier work.
The conditions of data set [5]: rodent models and monkeys; cited from earlier work.
For data set [6] the following is noted: ZDF, rat, in vivo, po, 28 days. How it is done:
Compound 18 was administered at doses up to 5 mg/kg/d. Compound cis-13-1 was administered at doses up to 50 mg/kg/d. We reasoned that the ZDF rat, as a metabolically challenged animal model, would be more sensitive to the potential adverse cardiac effects of thyromimetics than a normal, cholesterol-fed rat. At sacrifice, heart rate, and the first derivative of left ventricular pressure (LV dP/dt) were measured with a Millar catheter inserted into the left ventricle.

Data set [7] is described as follows: Cardiovascular activity in the Sprague Dawley rat (HR, LV dP/dt, aortic pressure, heart weight). Format: in vivo. As to conditions: SD rats, 1 mg/kg p.o., 7 days. An excerpt: Method: […] The control group (n=6) was given vehicle only. […] On the 7th day after the start of dosing, animals were anesthetized with Isofluorane and the left ventricle cannulated with a high fidelity catheter tip transducer via the right carotid artery. Left ventricular pressure, its first derivative (LVdP/dt), lead I ECG, and heart rate (HR) triggered off the ECG waveform, were digitally recorded. LV dP/dt is a well accepted measure of ionotropic state. Systolic and diastolic aortic pressures were measured by retracting the catheter into the proximal aorta.

For data set [8], the system named is thyroid stimulating hormone (TSH). The data set is described as follows: Circulating TSH in rats (cholesterol-fed, ZDF). The data set is classed as in vivo. Here is the method: as §4
Another concern with synthetic thyromimetics is the suppression of the endogenous thyroid axis. Thyroid homeostasis is maintained by the action of thyroid releasing hormone (TRH) and thyroid stimulating hormone (TSH). […] Although this particular side effect has been noted, it has typically been treated with less concern than the cardiac safety issues. […] Therefore previous investigators have measured TSH levels when testing synthetic thyromimetics and have used a 30% decrease of TSH as the denominator in their therapeutic index calculations. […] Therefore, both compounds suppress TSH as doses lower than that required to decrease circulating cholesterol. […] However, 0.2 mg/kg/d of Compound 18 in 28 day treated ZDF rats, decreased TSH levels greater than 90%.

Data set [9] relates to serum cholesterol. The data set is described as follows: Subacute study in cholesterol fed rats, PO: serum cholesterol. As to conditions: PO once a day for seven days. Format: in vivo. Here is the method:
Methods: […] Compound 13-1-cis and Compound 18 were administered PO once a day for seven days. Serum TSH is measured using an enzyme immunoassay (EIA) kit designed for rat TSH (Amersham Pharmacia Biotech, Arlington Heights, Ill.). Expression levels of liver genes (e.g., the LDL-receptor, apoB, cpt-1, spot14 and apoAI) and heart genes ([…]2, HCN2, Kv1.5, MHCα, MHCβ, Alpha1c) are quantified by Northern blot analysis or by RT-PCR. For Northern analyses, RNA is isolated from liver tissue by a guanidinium thiocyanate method, and total RNA is obtained using an RNeasy column (Quiagen). mRNA is separated on a 1% agarose gel and transferred to a nylon membrane. Oligonucleotides specific for the complementary gene sequences are used to make ^32P-labeled probes (Multiprime DNA labeling systems, Amersham Pharmacia Biotech). Following hybridization of the probes to the nylon membranes, radioactivity is assessed on a blue film (Eastman Kodak Co), and the resulting image quantified using the appropriate software. RT-PCR is performed using an iCycler instrument (Biorad) using appropriate primers by means of standard methodology [[…] et al. (2000) Life Sciences 66: 1683-94]. GPDH activity in liver and heart are measured as described in Example B. […] Alternatively, expression levels of the corresponding genes are determined by Northern blot analysis or RT-PCR as described above.

The conditions of data set [10]: cholesterol-fed rat; cited from earlier work.
Data set [11] can be described thus: Subacute study in cholesterol-fed rats, IP: heart weight and heart mGPDH activity.
Protocol: The cholesterol-fed rat is an animal model of hypercholesterolemia generated by feeding the animals a diet with high cholesterol content.
Serum cholesterol values were assessed and the animals randomized into groups for treatment.
Data set [12] in a line: Tissue distribution and pharmacokinetics following IP administration to normal rats. Format: in vivo, SD rats. As to conditions: 10 mg/kg IP. The text has this:
At pre-selected time points following dosing, the rats were anesthetized using iso-fluorane and the peritoneal cavity was then opened and a blood sample was obtained from the abdominal vena cava. In addition, liver, kidney, and heart were excised and immersed in 3 volumes of cold 60% acetonitrile. The blood samples were briefly centrifuged and the plasma fraction was then extracted with 1.5 volumes of methanol, processed, and analyzed by LC-UV as described in Example G. The frozen liver, kidney, and heart tissue were homogenized in 60% v/v acetonitrile, centrifuged, and then analyzed by LC-UV. Pharmacokinetic parameters and AUC of the plasma and tissue concentration-time profiles were determined noncompartmentally by WinNonLin.

The nature of data set [13]: Continuous infusion study in rats on a cholesterol-containing diet. The data set is classed as in vivo. The following applies: continuous infusion 1 mg/kg/day.
Protocol: Screening for thyromimetic activity was performed in normal rats maintained on a cholesterol-containing diet. Compounds were administered by continuous infusion using an osmotic pump at 1 mg/kg/day.
In data set [14] the test system is serum cholesterol. The data set is described as follows: Subacute study in cholesterol-fed rats, IP: serum cholesterol. The data set is classed as in vivo. As to conditions: IP once-a-day for seven days.

Turning to `N[C@@H](Cc1ccc(Oc2cc(I)c(O)c(I)c2)c(I)c1)C(=O)O` [Compound T3, 3,3′,5′-triiodothyronine, reference compound], the “Heart Weight” value in [1] was 146% of control. In addition, the “reduction in liver triglycerides” value in the data set with liver triglycerides was determined as 4%. In data set [2], the “Liver GPDH” value is 406% of control. In the data set on heart mGPDH activity, the “Heart GPDH” value is listed as 284% of control.
Consider `Cc1cc(NC(=O)C(=O)O)cc(C)c1Oc1ccc(O)c(C(C)C)c1` [CGS23425, [[4-[4-hydroxy-3-(1-methylethyl)phenoxy]-3,5-dimethylphenyl]amino]oxo acetic acid], for which, in the data set with human hepatoma cells, the apoAI expression result is listed as “increased apoAI expression”.
With `CC(C)c1cc(Oc2c(Cl)cc(CC(=O)O)cc2Cl)ccc1O` [3,5-dichloro-4-[4-hydroxy-3-(1-methylethyl)phenoxy]benzeneacetic acid], in data set [3], the TSH levels entry is recorded as “dose-dependently lower” and the cholesterol levels result is “dose-dependently lower”. The “Lp(a) levels” value in [4] is listed as “decrease Lp(a) levels”. Further, the “weight loss in animals” value in [5] is on record as “weight loss”.
For `CC(C)c1cc(Oc2c(Cl)cc(CC(=O)O)cc2Cl)ccc1O` [Compound 18, 3,5-dichloro-4-[4′-hydroxy-3′-iso-propylphenoxy]benzeneacetic acid, reference compound], in [6], the “TI for LV dP/dt (increase of 25%)” value was 0.15 and the “therapeutic index with respect to heart rate (ED15 HR/ED50 cholesterol)” value stood at 0.4. For the same compound, in data set [7], the “HR, LV dP/dt, and systolic aortic pressure” value is “marked and statistically significant increases”; the “Heart weight and heart weight normalized to body weight” value is given as “significantly increased”. Further, the “decrease of TSH levels” value in data set [8] (ZDF rats, 0.2 mg/kg/d, 28 day) is “greater than 90%”. Further, the “therapeutic index of TSH levels (30% decrease of TSH)” value in [8] (cholesterol-fed rats, treated for 7 days) was found to be 0.4. Also, the “doses that significantly decreased serum cholesterol” value in the data set on serum cholesterol [9] was determined as 1 mg/kg/day. In addition, the “therapeutic index (TI) with respect to heart rate increases (ED15 HR/ED50 cholesterol)” value in data set [10] is recorded as 40.
In general, AUC refers to concentration integrated over time. Lower therefore signals less exposure. Broadly, the Cmax is the maximum level reached in the sampled fluid or tissue. One may read the Tmax as the time at which the peak concentration occurs. In the case of `Cc1cc(OCC(=O)O)cc(C)c1Cc1ccc(O)c(C(C)C)c1` [Compound 17, [3,5-dimethyl-4-(4′-hydroxy-3′-iso-propylbenzyl)phenoxy]acetic acid, reference compound], in data set [1], the “Heart Weight” value was 134% of control. Besides, the cardiac hypertrophy entry in [11] (IP once-a-day for seven days) is on record as “cardiac hypertrophy was observed”. Also, in data set [11] (IP, 1 mg/kg/day), the “Cardiac GPDH activity” value was “increased”. Besides, the “Liver GPDH” value in data set [2] is 426% of control. Also, the “Heart GPDH” value in the data set with heart mGPDH activity is reported as 277% of control. For the same compound, in [12], the “Heart AUC” value is 27.6 nmol·h/g, the “Kidney AUC” value was 1.1 nmol·h/g and the “Liver AUC” value was determined as 48.5 nmol·h/g. Further, in data set [12] (male, SD, rat, plasma), the AUC stood at 2800 ng·h/mL, the peak concentration (Cmax) is 3490 ng/mL and the Tmax stood at 20 min. Also, in data set [12] (male, SD, rat, plasma, read-out: Cl(observed)/F (converted)), the CL/F was 56 mL/min/kg. For the same compound, in data set [12] (male, SD, rat, plasma, read-out: Vz(observed)/F), the Vd/F was 2.2 L/kg. In addition, in [12] (plasma), the AUMClast was found to be 1.7683 μg * hr^2/mL and the Tlast was 2 h. In addition, the “increase of systolic and diastolic blood pressure” value in data set [13] is 30%. Moreover, in [13] (day 7), the cholesterol result is recorded as “significant decrease in cholesterol” and the “increase of heart rate” value turned out to be 40%. Besides, the cholesterol entry in data set [13] (day 14) was “no significant decrease in cholesterol was observed”. In data set [13] (end-of-life), the “increase of LV dP/dt” value worked out at 71% and the left ventricular weight entry is on record as “increased”. Further, the “doses that significantly decreased serum cholesterol” value in the data set on serum cholesterol [14] lay within 0.1 to 1 mg/kg/day.
